Measurements taken from publication PMC9851200, “Multiparameter phenotypic screening for endogenous TFEB and TFE3 translocation identifies novel chemical series modulating lysosome function” (Autophagy, 2022).

How the values were obtained:
Format in all cases: binding
[1] = target: kinases (KINOMEscan panel) (Homo sapiens, UniProt P07949, V804M); conditions: kinase RET(V804M); NEW KINOMEscan
[2] = target: T1, kinases (KINOMEscan panel) (Homo sapiens, UniProt P52333); conditions: kinase JAK3(JH1domain-catalytic); NEW KINOMEscan
T1 sequence (P52333 1-1124): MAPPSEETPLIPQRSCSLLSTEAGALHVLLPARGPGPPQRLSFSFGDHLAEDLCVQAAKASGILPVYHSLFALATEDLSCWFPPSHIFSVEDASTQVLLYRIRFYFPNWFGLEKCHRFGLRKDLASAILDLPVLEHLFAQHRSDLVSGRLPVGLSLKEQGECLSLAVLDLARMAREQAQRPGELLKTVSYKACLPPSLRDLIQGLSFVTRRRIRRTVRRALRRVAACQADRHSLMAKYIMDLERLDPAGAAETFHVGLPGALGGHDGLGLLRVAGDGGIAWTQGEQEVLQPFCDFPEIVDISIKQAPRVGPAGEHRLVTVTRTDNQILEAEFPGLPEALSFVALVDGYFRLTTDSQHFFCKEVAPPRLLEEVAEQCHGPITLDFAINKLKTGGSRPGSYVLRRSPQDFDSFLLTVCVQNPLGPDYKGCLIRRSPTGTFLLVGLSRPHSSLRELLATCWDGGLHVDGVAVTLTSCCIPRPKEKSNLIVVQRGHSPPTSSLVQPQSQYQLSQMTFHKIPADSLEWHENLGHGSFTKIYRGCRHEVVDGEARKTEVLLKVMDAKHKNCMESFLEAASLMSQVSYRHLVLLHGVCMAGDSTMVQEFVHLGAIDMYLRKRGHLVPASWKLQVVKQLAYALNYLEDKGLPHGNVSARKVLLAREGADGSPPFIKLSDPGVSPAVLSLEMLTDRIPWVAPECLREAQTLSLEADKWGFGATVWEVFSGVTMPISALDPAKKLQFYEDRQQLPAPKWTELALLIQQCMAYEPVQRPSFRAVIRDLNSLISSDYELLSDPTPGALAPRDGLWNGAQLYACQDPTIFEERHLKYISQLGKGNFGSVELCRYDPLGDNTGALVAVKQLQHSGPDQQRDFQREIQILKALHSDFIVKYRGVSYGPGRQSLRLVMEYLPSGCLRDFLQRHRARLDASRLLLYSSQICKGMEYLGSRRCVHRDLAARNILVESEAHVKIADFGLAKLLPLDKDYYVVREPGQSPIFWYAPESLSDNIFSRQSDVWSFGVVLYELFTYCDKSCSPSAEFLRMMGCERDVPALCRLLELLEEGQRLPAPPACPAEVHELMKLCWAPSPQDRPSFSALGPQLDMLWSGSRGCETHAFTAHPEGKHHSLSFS

[3] = target: T2, kinases (KINOMEscan panel) (Homo sapiens, UniProt Q8WXR4); conditions: MYO3B; NEW KINOMEscan
T2 sequence (Q8WXR4 1-1341): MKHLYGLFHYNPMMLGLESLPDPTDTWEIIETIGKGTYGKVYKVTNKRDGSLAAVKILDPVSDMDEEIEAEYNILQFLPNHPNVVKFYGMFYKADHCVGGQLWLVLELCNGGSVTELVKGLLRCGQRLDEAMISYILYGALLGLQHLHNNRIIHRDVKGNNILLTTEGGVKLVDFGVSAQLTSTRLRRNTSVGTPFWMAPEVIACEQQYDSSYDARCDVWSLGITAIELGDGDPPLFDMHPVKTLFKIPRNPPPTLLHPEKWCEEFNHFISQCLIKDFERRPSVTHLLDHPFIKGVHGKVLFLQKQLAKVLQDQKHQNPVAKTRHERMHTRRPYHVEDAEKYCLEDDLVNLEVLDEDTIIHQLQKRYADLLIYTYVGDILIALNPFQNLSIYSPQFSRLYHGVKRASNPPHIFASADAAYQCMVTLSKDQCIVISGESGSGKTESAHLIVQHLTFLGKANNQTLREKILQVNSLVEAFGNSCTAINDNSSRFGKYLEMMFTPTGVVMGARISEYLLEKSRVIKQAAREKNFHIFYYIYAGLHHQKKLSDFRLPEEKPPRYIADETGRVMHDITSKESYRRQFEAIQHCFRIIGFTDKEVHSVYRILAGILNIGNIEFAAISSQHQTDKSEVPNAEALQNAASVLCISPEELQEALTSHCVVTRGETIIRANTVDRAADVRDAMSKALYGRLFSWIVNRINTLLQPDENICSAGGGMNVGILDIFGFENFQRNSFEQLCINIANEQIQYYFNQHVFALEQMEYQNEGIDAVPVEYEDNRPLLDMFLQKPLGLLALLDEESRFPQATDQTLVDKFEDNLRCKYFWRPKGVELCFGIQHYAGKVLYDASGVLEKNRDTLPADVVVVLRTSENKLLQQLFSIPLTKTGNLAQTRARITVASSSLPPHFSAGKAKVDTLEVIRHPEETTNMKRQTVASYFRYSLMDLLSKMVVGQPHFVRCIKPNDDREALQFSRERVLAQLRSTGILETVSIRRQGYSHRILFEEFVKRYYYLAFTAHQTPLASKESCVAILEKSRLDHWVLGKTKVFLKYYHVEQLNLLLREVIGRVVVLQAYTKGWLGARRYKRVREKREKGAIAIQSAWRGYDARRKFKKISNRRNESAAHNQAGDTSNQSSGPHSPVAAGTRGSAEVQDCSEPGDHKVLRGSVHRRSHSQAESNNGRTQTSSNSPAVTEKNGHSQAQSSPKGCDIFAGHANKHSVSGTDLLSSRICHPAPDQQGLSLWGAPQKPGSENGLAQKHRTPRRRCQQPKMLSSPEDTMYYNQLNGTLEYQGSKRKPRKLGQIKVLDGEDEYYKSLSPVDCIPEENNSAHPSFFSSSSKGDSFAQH

[4] = target: T3, kinases (KINOMEscan panel) (Homo sapiens, UniProt Q92772); conditions: CDKL2; NEW KINOMEscan
T3 sequence (Q92772 1-493): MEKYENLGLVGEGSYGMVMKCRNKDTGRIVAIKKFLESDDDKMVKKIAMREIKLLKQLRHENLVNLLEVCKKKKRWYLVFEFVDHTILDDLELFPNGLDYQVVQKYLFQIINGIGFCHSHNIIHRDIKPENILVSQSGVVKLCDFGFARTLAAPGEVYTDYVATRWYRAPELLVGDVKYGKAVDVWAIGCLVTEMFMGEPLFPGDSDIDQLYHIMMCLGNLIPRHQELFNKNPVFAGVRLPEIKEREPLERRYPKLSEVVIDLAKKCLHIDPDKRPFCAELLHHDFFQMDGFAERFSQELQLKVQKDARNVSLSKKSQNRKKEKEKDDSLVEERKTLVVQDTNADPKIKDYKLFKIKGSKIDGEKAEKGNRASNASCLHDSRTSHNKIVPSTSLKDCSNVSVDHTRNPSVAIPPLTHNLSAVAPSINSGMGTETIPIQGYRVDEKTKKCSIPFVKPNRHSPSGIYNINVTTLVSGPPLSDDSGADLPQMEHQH

kinases (KINOMEscan panel) (Homo sapiens, UniProt P07949, V804M), sequence (P07949 29-1114 V804M): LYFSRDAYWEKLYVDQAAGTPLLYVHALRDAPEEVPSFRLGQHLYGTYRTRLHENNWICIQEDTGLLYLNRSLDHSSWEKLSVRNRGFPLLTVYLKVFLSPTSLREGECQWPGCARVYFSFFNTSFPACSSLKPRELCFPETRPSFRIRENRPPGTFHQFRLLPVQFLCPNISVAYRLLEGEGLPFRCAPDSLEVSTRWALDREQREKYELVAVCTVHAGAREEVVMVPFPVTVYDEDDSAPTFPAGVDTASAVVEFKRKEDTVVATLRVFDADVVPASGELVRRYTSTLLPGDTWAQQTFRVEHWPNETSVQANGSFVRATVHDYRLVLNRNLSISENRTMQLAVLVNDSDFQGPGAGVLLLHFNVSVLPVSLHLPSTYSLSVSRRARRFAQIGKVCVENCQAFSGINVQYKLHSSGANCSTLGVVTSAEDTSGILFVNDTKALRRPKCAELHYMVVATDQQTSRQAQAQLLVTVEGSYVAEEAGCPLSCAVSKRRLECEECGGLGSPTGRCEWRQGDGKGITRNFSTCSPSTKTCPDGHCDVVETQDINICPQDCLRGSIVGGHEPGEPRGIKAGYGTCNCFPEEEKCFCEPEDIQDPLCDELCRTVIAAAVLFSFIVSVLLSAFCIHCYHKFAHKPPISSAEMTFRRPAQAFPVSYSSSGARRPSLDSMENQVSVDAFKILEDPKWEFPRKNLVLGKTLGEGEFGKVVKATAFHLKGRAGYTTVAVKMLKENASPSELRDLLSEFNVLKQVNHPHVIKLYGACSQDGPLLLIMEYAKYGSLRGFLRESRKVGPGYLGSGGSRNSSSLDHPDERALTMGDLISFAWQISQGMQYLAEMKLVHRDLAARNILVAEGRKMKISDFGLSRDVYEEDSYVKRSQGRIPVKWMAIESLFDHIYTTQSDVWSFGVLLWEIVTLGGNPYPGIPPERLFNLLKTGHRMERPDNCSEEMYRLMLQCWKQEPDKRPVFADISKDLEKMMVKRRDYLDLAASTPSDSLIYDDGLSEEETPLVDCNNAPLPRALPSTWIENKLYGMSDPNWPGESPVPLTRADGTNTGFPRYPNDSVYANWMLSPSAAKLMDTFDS

SMILES | KINOMEscan RET(V804M) [1] | KINOMEscan JAK3(JH1domain-catalytic) [2] | KINOMEscan MYO3B [3] | KINOMEscan CDKL2 [4]
Cc1cccc(-c2nc(Nc3ccc4nn(C)cc4c3)c3ccccc3n2)n1 [NK167] | 0 | 0 | 0 | 0
Cc1cccc(-c2nc(N(C)c3ccc4ncsc4c3)c3ccccc3n2)n1 [NK-161] | 0 | 0 | 1 | 0
